Consider 11 molecules from PubChem BioAssay (NCI).

Test systems include A498 renal; CCRF-CEM leukemia; COLO 205 colon; HS 578T breast; LOX IMVI melanoma; MCF7 breast; PC-3 prostate; UO-31 renal.
Common to all, as to test: growth of human tumour cells (NCI), 48 h

Structures are written as SMILES.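 Exposure lasted 48 hours, with cells grown in 96-well plates and compounds tested at five concentrations. GI50 = concentration required for 50% inhibition of growth. TGI: concentration producing complete growth inhibition.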

Take `CCC(C)C(=O)OCC(=O)c1ccc(-c2ccccc2)cc1` (stereo not given): the TGI in the experiment with A498 renal, in the experiment with CCRF-CEM leukemia, with COLO 205 colon, with HS 578T breast, in the experiment with LOX IMVI melanoma and with MCF7 breast was more than 100 µM in each case. For the same molecule, the TGI with PC-3 prostate and in the experiment on UO-31 renal was more than 100 µM in each case.
With `Cc1cc(O)c(C2=NN(c3ccc(S(N)(=O)=O)cc3)C(/C=C/c3ccccc3)C2)cc1Cl` (stereo not given), the GI50 is 14.9 µM in the experiment on A498 renal; 17.7 µM in the experiment with CCRF-CEM leukemia; 10.4 µM in the experiment on COLO 205 colon; 12.3 µM in the experiment with HS 578T breast; 3.94 µM with LOX IMVI melanoma; 3.93 µM with MCF7 breast. In addition, the GI50 is 3.15 µM with PC-3 prostate and 15.2 µM in the experiment on UO-31 renal. Also, the TGI with A498 renal is 42.4 µM; with CCRF-CEM leukemia it was 50 µM; with COLO 205 colon, 22.1 µM; in the experiment on HS 578T breast, 49.7 µM; in the experiment on LOX IMVI melanoma it was 16.2 µM; in the experiment on MCF7 breast, 16.1 µM. Besides, the TGI stood at 11.5 µM in the experiment on PC-3 prostate and 34.9 µM in the experiment with UO-31 renal.
Turning to `Cc1nc2cc(Nc3nc(Nc4ccc(F)cc4)nc(N4CCOCC4)n3)ccc2n1Cc1ccccc1`, the GI50 is 1.3 µM in the experiment with A498 renal; 2.75 µM with CCRF-CEM leukemia; 1.84 µM with COLO 205 colon; 3.84 µM in the experiment with HS 578T breast; 4.3 µM with LOX IMVI melanoma; 3.23 µM in the experiment on MCF7 breast. Besides, the values for the GI50 in the experiment on PC-3 prostate and in the experiment on UO-31 renal were 2.91 µM and 3.24 µM, respectively. The TGI stood at 4.57 µM with A498 renal; 8.2 µM with CCRF-CEM leukemia; 3.33 µM in the experiment on COLO 205 colon; 58.5 µM with HS 578T breast; 20.7 µM with LOX IMVI melanoma; 13.8 µM in the experiment with MCF7 breast. In addition, the TGI with PC-3 prostate was 16.8 µM; in the experiment on UO-31 renal it was 14.6 µM.
`COc1ccc(C(=O)c2sc3nc(-c4cccs4)ccc3c2N)cc1OC`: the GI50 in the experiment with A498 renal was 2 µM; in the experiment with CCRF-CEM leukemia, 4.53 µM; in the experiment on COLO 205 colon, 5.35 µM; in the experiment on HS 578T breast it was 6.27 µM; in the experiment on LOX IMVI melanoma it was 6.73 µM; with MCF7 breast it was 2.79 µM. The GI50 is 3.65 µM in the experiment on PC-3 prostate and 4.56 µM with UO-31 renal. Also, the TGI in the experiment on A498 renal, in the experiment on CCRF-CEM leukemia, with COLO 205 colon, in the experiment on HS 578T breast, with LOX IMVI melanoma and with MCF7 breast was more than 100 µM in each case. The TGI in the experiment on PC-3 prostate and with UO-31 renal was more than 100 µM each time.
Take `O=[N+]([O-])c1cc([N+](=O)[O-])c(Cl)cc1Cl`: the GI50 in the experiment on A498 renal is 1.61 µM; with CCRF-CEM leukemia, 0.217 µM; with COLO 205 colon, 1.77 µM; with HS 578T breast, 2.38 µM; in the experiment with LOX IMVI melanoma, 0.361 µM; in the experiment with MCF7 breast, 1.67 µM. Besides, the GI50 in the experiment with PC-3 prostate was 1.35 µM; in the experiment with UO-31 renal, 0.34 µM. For the same molecule, the TGI came to 4.51 µM with A498 renal; 0.505 µM in the experiment on CCRF-CEM leukemia; 3.65 µM in the experiment on COLO 205 colon; 7.56 µM in the experiment with HS 578T breast; 1.46 µM in the experiment with LOX IMVI melanoma; 4.23 µM with MCF7 breast. The TGI in the experiment with PC-3 prostate turned out to be 2.88 µM; in the experiment with UO-31 renal it was 1.48 µM.
For `NC1(Cc2ccc(Cl)cc2)CCN(c2ncnc3[nH]ccc23)CC1`, the GI50 in the experiment with A498 renal was 0.546 µM; in the experiment on CCRF-CEM leukemia, 3.05 µM; with COLO 205 colon, 3.72 µM; in the experiment with HS 578T breast, 2.17 µM; with LOX IMVI melanoma, 4.43 µM; in the experiment on MCF7 breast, 4.1 µM. Also, the figures for the GI50 in the experiment on PC-3 prostate and in the experiment with UO-31 renal were 2.99 µM and 1.54 µM, respectively. In addition, the TGI in the experiment on A498 renal amounted to 4.58 µM; in the experiment on CCRF-CEM leukemia, 24 µM; with COLO 205 colon, 15.1 µM; with HS 578T breast, 14.6 µM; with LOX IMVI melanoma it was 17.7 µM; in the experiment on MCF7 breast, 17.6 µM. Besides, the figures for the TGI in the experiment on PC-3 prostate and in the experiment with UO-31 renal were 23.5 µM and 13 µM, respectively.
For the molecule `COc1cc2oc3c(c(=O)c2c(O)c1/C=C/C(C)C)C(C=C(C)C)Oc1cc(O)ccc1-3` (stereo not given), the TGI in the experiment with A498 renal was 40.3 µM; in the experiment on CCRF-CEM leukemia it was 30.4 µM; in the experiment with COLO 205 colon it was 29.4 µM; in the experiment on HS 578T breast, 38.2 µM; in the experiment on LOX IMVI melanoma it was 27.7 µM; in the experiment with MCF7 breast, 28.6 µM. Further, the TGI came to 29.4 µM with PC-3 prostate and 25.2 µM in the experiment with UO-31 renal.
For `COc1c(N2CCN(CN3C(=O)C(=O)c4cc(Cl)ccc43)C(C)C2)c(F)cc2c(=O)c(C(=O)O)cn(C3CC3)c12` (stereo not given), the GI50 in the experiment on A498 renal was 11.9 µM; with COLO 205 colon, 80.6 µM; with HS 578T breast it was 30.4 µM; in the experiment on LOX IMVI melanoma, 19 µM; in the experiment with MCF7 breast it was 26.6 µM; in the experiment on PC-3 prostate, 10.8 µM. Besides, the GI50 in the experiment on UO-31 renal was more than 100 µM. Further, the TGI in the experiment with A498 renal was 80.9 µM; in the experiment with COLO 205 colon, more than 100 µM; with HS 578T breast, more than 100 µM; in the experiment on LOX IMVI melanoma, more than 100 µM; in the experiment on MCF7 breast, more than 100 µM; with PC-3 prostate it was more than 100 µM. This molecule also returned a TGI in the experiment on UO-31 renal of more than 100 µM.
As to `CN1CCN(c2nc(-c3csc(-c4cccs4)n3)cc3ccccc23)CC1`, the GI50 in the experiment on A498 renal was 1.47 µM; in the experiment on CCRF-CEM leukemia, 2 µM; in the experiment with HS 578T breast, 1.7 µM; in the experiment with LOX IMVI melanoma, 1.78 µM; in the experiment on MCF7 breast it was 1.63 µM; in the experiment on PC-3 prostate it was 1.98 µM. Further, the GI50 in the experiment on UO-31 renal was 1.66 µM. Besides, the TGI with A498 renal was 3.27 µM; in the experiment on CCRF-CEM leukemia, 4.46 µM; with HS 578T breast, 4.34 µM; with LOX IMVI melanoma it was 3.22 µM; in the experiment on MCF7 breast it was 3.2 µM; in the experiment with PC-3 prostate, 4.48 µM. The molecule also returned a TGI with UO-31 renal of 3.17 µM.
On to `CN(CCC(=O)/C(=C\c1ccccc1)c1ccc(Cl)cc1)Cc1ccccc1`, for which the GI50 with A498 renal is 3.45 µM; with CCRF-CEM leukemia, 1.44 µM; in the experiment on COLO 205 colon, 2.75 µM; in the experiment on HS 578T breast, 3.99 µM; in the experiment on MCF7 breast it was 2.06 µM; in the experiment with PC-3 prostate, 2.93 µM. Moreover, in the experiment with UO-31 renal, the GI50 is 1.74 µM. The TGI came to 12.6 µM with A498 renal; 6.91 µM in the experiment with CCRF-CEM leukemia; 7.24 µM with COLO 205 colon; 47.5 µM in the experiment on HS 578T breast; 16.5 µM in the experiment on MCF7 breast; 9.49 µM in the experiment with PC-3 prostate. In the experiment with UO-31 renal, this molecule had a TGI of 3.63 µM.
For `CCOC(=O)Nc1cc2ccccc2c(N=Nc2ccccc2)c1O`, the TGI with A498 renal, in the experiment with CCRF-CEM leukemia, with COLO 205 colon, with HS 578T breast, in the experiment with MCF7 breast and with PC-3 prostate was more than 100 µM throughout. Moreover, the TGI in the experiment on UO-31 renal was more than 100 µM.
